Results on two compounds are retold here after patent US20150073002A1, “COMBINATION” (GlaxoSmithKline LLC, priority 2010, published 2015).

Structures are written as SMILES. Where two headings read alike, the source gives them in different places.

Experiment [1] deals with KPL-4. Put plainly: Cell apoptosis induction, caspase-3/7 activation, KPL-4. The experiment is classed as cell-based, human. How it is done: (§1) Human breast tumor cell lines BT474, HCC1419, HCC1954, JIMT1, MDA-MB-361, SK-BR-3 and UACC893 were cultured in RPMI 1640 medium containing 10% FBS. BT-474-J4, a breast cancer cell line acquired resistant to Compound A was cultured in RPMI 1640 medium containing 10% FBS and 1 μM of Compound A. KPL4 breast cancer line was cultured in DMEM containing 5% FBS. All lines were kept in a humidified incubator at 37° C. in 95% air and 5% CO2. JIMT-1 is a cell line established from a tumor of a patient with trastuzumab-resistant breast cancer. BT-474-J4 is a single cell clone derived from a culture of BT-474 cells that were selected to grow in Compound A to a concentration of 3 μM.
(§2) For investigation of the induction of apoptosis, cells were plated at 5,000 cells per well in a 96-well tissue culture plate and allowed to attach for approximately 24 hours. Cells were exposed to ten, two-fold or three-fold serial dilutions of compound or the combination of the two agents at a constant molar to molar ratio of 10:1 Compound A to Compound B in RPMI media containing 10% FBS or DMEM containing 5% FBS for KPL4. Twenty-four hours after compound treatment, caspase 3/7 activity was determined with the Caspase Glo™ 3/7 (Promega, cat G8093) according to the instructions provided by the manufacturer.

The test system of experiment [2] is MDA-MB-361. Put plainly: Cell growth inhibition assay (Cell Titer Glo), MDA-MB-361. The experiment is classed as cell-based, human. The settings on record: MDA-MB-361, 3 days, single agent, read-out: Single Agent IC50 (μM), mean ± STD. How it is done:
as §1
All cells were cultured for a minimum of 72 hours prior to cell plating. Cells were assayed in a 96-well tissue culture plate (NUNC 136102) of RPMI medium containing 10% FBS for all cells at 2,000 cells per well except KPL4, which were plated in DMEM containing 5% FBS at 500 cells per well. […] ATP levels were determined by adding Cell Titer Glo® (Promega) according to the manufacturer's protocol. Briefly, Cell Titer Glo® was added to each plate, incubated for 20 minutes then the luminescent signal was read on a SpectraMax L plate reader with a 0.5 sec integration time.
(§3) Inhibition of cell growth was estimated after treatment with compound or a combination of compounds for three days and comparing the signal to cells treated with vehicle (DMSO). Cell growth was calculated relative to vehicle (DMSO) treated control wells. […]
(§4) Combination effects on potency were evaluated using Combination Index (CI) which was calculated with the back-interpolated IC50 values and the mutually non-exclusive equation derived by Chou and Talalay (Chou T C, Talalay P. Quantitative analysis of dose-effect relationships: the combined effects of multiple drugs or enzyme inhibitors. Adv Enzyme Regul 1984; 22:27-55): […]

Experiment [3] concerns HCC1954. Nature of the experiment: Cell growth inhibition assay (Cell Titer Glo), HCC1954. The format is cell-based. As to conditions: Homo sapiens, 72 h; HCC1954, 3 days, single agent; read-out: Single Agent IC50 (μM), mean ± STD. How it is done:
as §1
(§5) All cells were cultured for a minimum of 72 hours prior to cell plating. […] ATP levels were determined by adding Cell Titer Glo® (Promega) according to the manufacturer's protocol. Briefly, Cell Titer Glo® was added to each plate, incubated for 20 minutes then the luminescent signal was read on a SpectraMax L plate reader with a 0.5 sec integration time.
as §3
In general terms: In ATP-based viability assays light output follows the ATP content of the culture.

For experiment [4], the system named is JIMT-1. Put plainly: Cell growth inhibition assay (Cell Titer Glo), JIMT-1. The format is cell-based, human. The settings on record: JIMT-1, 3 days, single agent, read-out: Single Agent IC50 (μM), mean ± STD. Here is the method:
as §1
(§6) All cells were cultured for a minimum of 72 hours prior to cell plating. Cells were assayed in a 96-well tissue culture plate (NUNC 136102) of RPMI medium containing 10% FBS for all cells at 2,000 cells per well except KPL4, which were plated in DMEM containing 5% FBS at 500 cells per well. Approximately 24 hours after plating, cells were exposed to ten, two-fold or three-fold serial dilutions of compound or the combination of the two agents at a constant molar to molar ratio of 1:1 Compound A to Compound B in RPMI media containing 10% FBS or DMEM containing 5% FBS for KPL4. Cells were incubated in the presence of compounds for 3 days. ATP levels were determined by adding Cell Titer Glo® (Promega) according to the manufacturer's protocol. Briefly, Cell Titer Glo® was added to each plate, incubated for 20 minutes then the luminescent signal was read on a SpectraMax L plate reader with a 0.5 sec integration time.
as §3, §4
(§7) The combination effects on the response scale were quantified by Excess Over Highest Single Agent (EOHSA) [Liu L, Shi H, Liu Y, Anderson A, Peterson J, Greger J, Martin A M, Gilmer T M. Synergistic Effects of Foretinib with HER-Targeted Agents in MET and HER1- or HER2-Coactivated Tumor Cells. […] For single agent and combination treatments, cells were exposed to compounds at a fixed-dose-ratio, and dose response curves were fit to the experimental data and analyzed using regression models described above. […]

Experiment [5] relates to BT-474. Put plainly: Cell growth inhibition assay (Cell Titer Glo), BT-474. The experiment is classed as cell-based. The settings on record: Homo sapiens, 72 h; BT-474, 3 days, single agent; read-out: Single Agent IC50 (μM), mean ± STD. How it is done:
as §1, §5, §3

Experiment [6] relates to HCC1419. Nature of the experiment: Cell growth inhibition assay (Cell Titer Glo), HCC1419. The format is cell-based. The settings on record: Homo sapiens, 72 h; HCC1419, 3 days, single agent; read-out: Single Agent IC50 (μM), mean ± STD. How it is done:
as §1, §5, §3

The test system of experiment [7] is KPL4. Nature of the experiment: Cell growth inhibition assay (Cell Titer Glo), KPL4. The format is cell-based. The settings on record: Homo sapiens, 72 h; KPL4, 3 days, single agent; read-out: Single Agent IC50 (μM), mean ± STD. Here is the method:
as §1, §5, §3

Experiment [8] concerns BT474-J4, and MDA-MB-361. Nature of the experiment: Cell growth inhibition, text summary over two lines. The settings on record: Homo sapiens, 72 h; over BT474-J4 and MDA-MB-361 lines, 3 days; read-out: IC50 as a single agent. The experiment is classed as cell-based. Here is the method:
All cells were cultured for a minimum of 72 hours prior to cell plating. […] Cells were incubated in the presence of compounds for 3 days. ATP levels were determined by adding Cell Titer Glo® (Promega) according to the manufacturer's protocol.
Cell growth was calculated relative to vehicle (DMSO) treated control wells.
In general, a CI value <0.9, between 0.9 and 1.1, or >1.1 indicates synergy, additivity and antagonism, respectively. In general, the smaller the CI number, the greater is the strength of synergy.

For experiment [9], the system named is BT474. Put plainly: Cell apoptosis induction, caspase-3/7 activation, BT474. The settings on record: BT474, 24 hours. The format is cell-based, human. Here is the method:
as §1, §2

Experiment [10] has as its system BT474-J4. Put plainly: Cell apoptosis induction, caspase-3/7 activation, BT474-J4. As to conditions: BT474-J4, 24 hours. The format is cell-based, human. How it is done: as §1, §2
The test system of experiment [11] is KPL-4, UACC893 and HCC1954 lines. Put plainly: Cell growth inhibition, text summary over three lines. The format is cell-based. The settings on record: Homo sapiens, 72 h; over KPL-4, UACC893 and HCC1954 lines, 3 days; read-out: IC50 as a single agent. Here is the method: as §1, §6, §3, §4, §7
In experiment [12] the test system is HCC1419, SK-BR-3 and BT474 lines. Described as above. The experiment is classed as cell-based. As to conditions: Homo sapiens, 72 h; over HCC1419, SK-BR-3 and BT474 lines, 3 days; read-out: IC50 as a single agent. Here is the method:
as §1, §6, §3, §4, §7

The subject of experiment [13] is SK-BR-3. Nature of the experiment: Cell growth inhibition assay (Cell Titer Glo), SK-BR-3. As to conditions: Homo sapiens, 72 h; SK-BR-3, 3 days, single agent; read-out: Single Agent IC50 (μM), mean ± STD. The experiment is classed as cell-based. Here is the method: as §1, §5, §3
Experiment [14] has as its system UACC893. Put plainly: Cell growth inhibition assay (Cell Titer Glo), UACC893. As to conditions: Homo sapiens, UACC-893, 72 h; UACC893, 3 days, single agent; read-out: Single Agent IC50 (μM), mean ± STD. The format is cell-based. How it is done: as §1, §5, §3
The subject of experiment [15] is BT-474-J4. Put plainly: Cell growth inhibition assay (Cell Titer Glo), BT-474-J4. The format is cell-based, human. As to conditions: BT-474-J4, 3 days, single agent, read-out: Single Agent IC50 (μM), mean ± STD. Here is the method: as §1, §6, §3

The term IC50 denotes the point on the concentration scale where inhibition reaches its midpoint. Turning to `CS(=O)(=O)CCNCc1ccc(-c2ccc3ncnc(Nc4ccc(OCc5cccc(F)c5)c(Cl)c4)c3c2)o1` [Compound A, N-{3-Chloro-4-[(3-fluorobenzyl)oxy]phenyl}-6-[5-({[2-(methanesulphonyl)ethyl]amino}methyl)-2-furyl]-4-quinazolinamine, reference compound], the “caspase 3/7 activity” value in experiment [1] (KPL4, 24 hours, compound alone at 10 μM) is reported as “slight increase in caspase 3/7 activity”; in experiment [9] (compound alone, dose response), “increased caspase 3/7 activity in a dose dependent manner”; in experiment [10] (compound alone at 10 μM), “slight increase in caspase 3/7 activity”. Also, the IC50 in experiment [2] (Homo sapiens, MDA-MB-361, 72 h) is greater than 10 µM; in [3], 1.73 ± 0.165 µM; in experiment [4] (Homo sapiens, JIMT-1, 72 h) it was no less than 6.8 µM; in [4], greater than 10 µM; in experiment [5], 0.134 ± 0.049 µM; in experiment [6], 0.077 ± 0.017 µM. In addition, the IC50 is 0.86 ± 0.039 µM in experiment [7]; no less than 9200 nM in [8]; 900 to 1700 nM in [11]; no more than 134 nM in experiment [12]; 0.105 ± 0.039 µM in experiment [13]; 1.12 ± 0.15 µM in [14]. For the same compound, the IC50 in experiment [15] (Homo sapiens, 72 h) was 9.23 ± 3.83 µM.
In the case of `Cn1ncc(Cl)c1-c1cc(C(=O)N[C@H](CN)Cc2cccc(F)c2)sc1Cl` [Compound B, N-{(1S)-2-amino-1-[(3-fluorophenyl)methyl]ethyl}-5-chloro-4-(4-chloro-1-methyl-1H-pyrazol-5-yl)-2-thiophenecarboxamide], the “caspase 3/7 activity” value in experiment [1] (KPL-4, 24 hours, compound alone at 1 μM) is “but not in the KPL-4 line”; in [9] (compound alone at 1 μM), “slightly increased caspase 3/7 activity”; in experiment [10] (compound alone at 1 μM) it was “slightly increased caspase 3/7 activity”. The IC50 is 0.7 µM in [2] (Homo sapiens, MDA-MB-361, 72 h); 0.758 ± 0.074 µM in experiment [2]; 3.67 ± 2.97 µM in [3]; no less than 6.8 µM in experiment [4] (Homo sapiens, JIMT-1, 72 h); 6.81 ± 2.13 µM in experiment [4]; 3.3 ± 1.1 µM in experiment [5]. Also, the IC50 is 2.62 ± 0.548 µM in experiment [6]; 0.113 ± 0.012 µM in [7]; 500 to 3700 nM in [11]; no less than 2600 nM in experiment [12]; 4.19 ± 1.58 µM in experiment [13]; 0.505 ± 0.303 µM in experiment [14]. In addition, the IC50 came to 0.67 ± 0.026 µM in experiment [15] and 0.5 µM in experiment [15] (Homo sapiens, 72 h).
